Entries after “also recorded” stand apart in the source; their conditions may differ.
What was measured:
[1] = tested on: serum 5-HT; test: Part 2 MAD biomarker: serum 5-HT change from Day 1; assay type: in vivo, human
Source text: (§1) Biomarkers were to be evaluated in Part 2 by measuring concentrations of serotonin (5-hydroxytryptamine [5-HT]) in serum and 5-hydroxyindoleacetic acid (5-HIAA) in plasma and urine. As well, the relationship of biomarkers to PK parameters was to be evaluated.
(§2) The biomarker analysis was to be based on the Biomarker Population (all subjects with evaluable biomarker measurements at baseline [Day 1 predose] and at least one after dosing [Day 7 or Day 14]).
(§3) Biomarker data were to be collected only in Part 2. The following biomarkers were to be analyzed: • Serum 5-HT • Plasma 5-HIAA • Urine 5-HIAA/24 hours (as measured, adjusted, estimated, and per gram creatinine)
(§4) Linear regression was to be performed using biomarker changes, absolute and relative (%), from Day 1, at predose on Day 7 or Day 14 versus AUC0-24, Cmax, and Cmin in corresponding study days. The slopes and corresponding 95% confidence intervals (CIs) were to be tabulated.
(§5) Summary statistics (mean, standard deviation [SD], median, minimum [Min], and maximum [Max]) were to be tabulated for each biomarker, by Cohort, with absolute and relative (%) changes from Day 1 predose.
(§6) The values were to be tabulated with P values testing whether the difference of changes was equal to 0.
(§7) The biomarker portion of the study was conducted in Part 2 MAD using the Biomarker Population. The biomarkers evaluated were serum 5-HT and plasma 5-HIAA, as well as urine 5-HIAA/24 hours (as measured, adjusted, estimated, and per gram creatinine). Urinary 5-HIAA was determined by a validated (21 C.F.R. 58, GLP-compliant) method using liquid chromatographic separation and tandem mass spectrometry detection.
(§8) The Biomarker Population consisted of all subjects with evaluable baseline (Day 1 predose) and at least one postdose (Day 7 or Day 14) biomarker measurements.
(§9) Biomarker data were analyzed for each KAR5585 dose separately, for all KAR5585 doses pooled, and for all placebo subjects pooled. […]

[2] = tested on: urine 5-HIAA/24 hours; test: Part 2 MAD biomarker: urine 5-HIAA/24 hours change from Day 1; assay type: in vivo, human
Source text: as §1, §2, §3
Linear regression was to be performed using biomarker changes, absolute and relative (%), from Day 1, at predose on Day 7 or Day 14 versus AUC0-24, Cmax, and Cmin in corresponding study days. The slopes and corresponding 95% confidence intervals (CIs) were to be tabulated. […]
as §7, with “detection. […]” for “detection.”
Biomarker data were analyzed for each KAR5585 dose separately, for all KAR5585 doses pooled, and for all placebo subjects pooled.
Urine 5 HIAA/24 hour was analyzed in 4 different manners: as measured in the 24-hour collection and (in order to correct for any collection errors) adjusted for creatinine excretion, estimated by the expected creatinine excretion for the subject (as defined in and expressed per gram creatinine. Results were similar for each of the 4 manners and are presented in this report for measured urine. Tables and figures for adjusted, estimated, and per-gram creatinine results are presented in Section 14. […]

[3] = Part 1 SAD urine pharmacokinetics (urinary excretion, renal clearance); assay type: in vivo, human
Description: Renal clearance of KAR5417 was calculated from the area under the plasma time concentration curve (AUC0-96) for KAR5417 and the amount of KAR5417 recovered in urine (Table 21).

[4] = tested on: plasma 5-HIAA (a PD marker of 5-HT synthesis); test: Part 2 MAD biomarker: plasma 5-HIAA change from Day 1; assay type: in vivo, human
Source text: as §1, §2, §3
The a priori primary biomarker endpoint was to be the change in plasma 5-HIAA concentration on Day 14 from Day 1.
as §4, §5, §6, §7, §8, §9

[5] = clinical; conditions: human, plasma, oral, 100 mg
Description: Food effect was to be evaluated in Part 1, Period 2.
Part 2 (MAD): BID doses (separated by approximately 12 hours on Days 1 to 13) and a single AM dose on Day 14. One or more of the MAD Cohort could have been dosed once daily (QD).
Pharmacokinetic data were to be summarized descriptively.

[6] = Safety and tolerability in healthy adult subjects (Study KAR5585-101); assay type: in vivo, human
[7] = KAR5585 700 mg single oral dose

SMILES: Nc1nc(O[C@H](c2ccc(Cl)cc2-c2ccccc2)C(F)(F)F)cc(N2CCC3(CC2)CN[C@H](C(=O)O)C3)n1 [KAR5417, (S)-8-(2-amino-6-((R)-1-(5-chloro-[1,1′-biphenyl]-2-yl)-2,2,2-trifluoroeth-oxy)pyrimidin-4-yl)-2,8-diazaspiro[4.5]decane-3-carboxylic acid]
- correlation of change from baseline in serum 5-HT with AUC0-24, Cmax, C12 or AUC0-12 ([1]; Day 7): no significant correlations
- correlation of change from baseline in serum 5-HT with AUC0-24, Cmax, C12 or AUC0-12 ([1]; Day 14): correlated
- correlation of change from baseline in measured urine 5-HIAA with AUC0-24, Cmax, C12 or AUC0-12 ([2]; Day 7): no significant correlations
- correlation of change from baseline in measured urine 5-HIAA with AUC0-24, Cmax, C12 or AUC0-12 ([2]; Day 14): significantly correlated
- highest amount excreted in urine, of the dose ([3]; 400 mg fed Cohort (Cohort 3B)): 0.331%
- Plasma AUC0-96 Mean ([3]; KAR5585 100 mg single oral dose): 889 ng·h/mL
- Plasma AUC0-96 Mean ([3]; KAR5585 400 mg single oral dose, fasted): 3630 ng·h/mL
- Plasma AUC0-96 Mean ([3]; KAR5585 400 mg single oral dose, fed): 6590 ng·h/mL
- CLR Mean [3, 7]: 191 mL/h
- Plasma AUC0-96 Mean [3, 7]: 5990 ng·h/mL
- CLR Mean ([3]; KAR5585 1200 mg single oral dose): 157 mL/h
- correlation of absolute and relative changes from baseline in plasma 5-HIAA with AUC0-24, Cmax, C12 and AUC0-12 ([4]; Day 14): significantly correlated
- concentration at 24 h [5]: 19.7 ng/mL

SMILES: CCOC(=O)[C@@H]1CC2(CCN(c3cc(O[C@H](c4ccc(Cl)cc4-c4ccccc4)C(F)(F)F)nc(N)n3)CC2)CN1 [KAR5585, (S)-ethyl 8-(2-amino-6-((R)-1-(5-chloro-[1,1′-biphenyl]-2-yl)-2,2,2-trifluoroethoxy)pyrimidin-4-yl)-2,8-diazaspiro[4.5]decane-3-carboxylate]
- mean difference of percent changes from Day 1 in serum 5-HT compared to placebo ([1]; Day 7, 200 mg fed dose group): statistically significant
- absolute and percent changes from Day 1 in creatinine-normalized urine 5-HIAA versus placebo ([2]; Days 7 and 14, all dose groups): statistically significant in favor of KAR5585
- amount excreted (Ae) in urine, of the administered dose ([3]; single oral KAR5585, all dose levels): less than 0.004%
- quantifiability in urine samples ([3]; single oral KAR5585, almost all subjects): could not be quantified in urine samples; also recorded: not quantifiable in urine in almost all subjects
- mean percent difference of change from Day 1 in plasma 5-HIAA between KAR5585 and placebo ([4]; Day 7, any dose group): not significant
- mean difference of changes from Day 1 to Day 14 in plasma 5-HIAA compared to placebo ([4]; each dose group and all doses combined, Day 14): statistically significant in favor of KAR5585
- tolerability ([6]; 400 mg single oral dose under fed conditions, 9 healthy adult subjects): well-tolerated
- tolerability throughout the trial ([6]; Part 1 and Part 2, all doses): well tolerated throughout the trial
- safety and tolerability ([6]; multiple ascending oral doses 100-400 mg BID up to 14 days, 36 healthy adult subjects): safe and well-tolerated
